Measured values: patent publication US20260069560A1, “COMPOSITIONS AND METHODS OF USE” (UNIVERSITY OF FLORIDA RESEARCH FOUNDATION, INCORPORATED, priority 2022, published 2026)

Key:
[1] = tested on: LLC subcutaneous allograft tumors; assay: Intratumoral injection of cis-Bac430 in combination with anti-PD-1 therapy in lung tumor-bearing mice; assay type: in vivo
Procedure: FIGS. 12A-12G illustrate that intratumoral administration of cis-Bac430 in combination with anti-PD-1 therapy reduces tumor volume and enhances systemic anti-tumor immunity. An experimental schematic is shown for testing anti-PD-1 mediated anti-tumor effect in combination with intratumoral injection of cis-Bac430 or DMSO control (FIG. 12A). Representative results are shown for the growth curve of LLC subcutaneous allograft tumors receiving intratumoral injection of either cis-Bac430 (0.043 mg/mouse) or DMSO alone at the same time as anti-PD-1 treatment or saline control (FIG. 12n). Each point represents tumor volume mean±SEM. At day 20, P values are calculated by Mann-Whitney U test. Representative results are shown for the mean±SEM of tumor weight at the endpoint for mice treated with an anti-PD-1 monoclonal antibody or saline control that received intratumoral injection of either cis-Bac430 or DMSO (FIG. 12C). P values are calculated by Mann-Whitney U test. Representative results are shown for the mean±SEM of intratumoral CD8+ frequency at endpoint for mice treated with an anti-PD-1 monoclonal antibody or saline control that received intratumoral injection of either cis-Bac430 or DMSO (FIG. 12D). P values are calculated by Mann-Whitney U test. Representative results are shown for the mean±SEM of intratumoral IFNγ+CD8+ frequency at endpoint for mice treated with an anti-PD-1 monoclonal antibody or saline control that received intratumoral injection of either cis-Bac430 or DMSO (FIG. 12E). P values are calculated by Mann-Whitney U test. Representative results are shown for the mean±SEM of splenic CD8+ frequency at endpoint for mice treated with an anti-PD-1 monoclonal antibody or saline control that received intratumoral injection of either cis-Bac430 or DMSO (FIG. 12F). P values are calculated by Mann-Whitney U test. Representative results are shown for the mean±SEM of splenic IFNγ+CD8+ frequency at endpoint for mice treated with an anti-PD-1 monoclonal antibody or saline control that received intratumoral injection of either cis-Bac430 or DMSO (FIG. 12G). P values are calculated by Mann-Whitney U test.
Lung tumor-bearing mice were injected intratumorally with a 10 μL volume of either 10 mM (0.043 mg/dose) cis-Bac430 or DMSO on each day of anti-PD-1 therapy (FIG. 12A).

[2] = tested on: primary mouse splenic CD8+ T cells; assay: Bioassay for IFNγ stimulation in primary splenic CD8+ T cells, flow cytometric analysis; assay type: cell-based; details: for IFNγ stimulation from primary splenic CD8+ T cells: synthetic compounds, concentration range 0.01-1 mM
Procedure: Isolates are cultured in 96-well deep well plates for 3 days under anaerobic conditions in MEGA media. Cell-free supernatant is obtained by filtering cultures by […] syringe filtration. Cell-free supernatant is added to the serum-free culture media of primary mouse splenic CD8+ T cells at a ratio of 1:100, followed by 6 hours of incubation. After incubation, cells are harvested and stained for flow cytometric analysis, which is performed on the BD Fortessa LSR, followed by analysis using FlowJo.
FIGS. 11A-11F illustrate that synthetic cis-Bac430 induces dose-dependent stimulation of IFNγ production. Representative results are shown for IFNγ stimulation from primary splenic CD8+ T cells by cis-Bac430 and trans-Bac430 at a concentration range between 0.01-0.25 mM (FIG. 11A) or between 0.01-1 mM (FIG. 11B). P values calculated using Mann-Whitney U test compared to unstimulated negative control and PMA/Ionomycin-stimulated positive control. Representative results are shown for the percent of live CD8+ T cells from the bioassay for IFNγ stimulation by cis-Bac430 and trans-Bac430 at a concentration range between 0.01-0.25 mM (FIG. 11C) or between 0.01-1 mM (FIG. 11D). P values calculated using Mann-Whitney U test compared to unstimulated negative control and PMA/Ionomycin-stimulated positive control. Representative results are shown for mean±SEM of fecal Bac430 concentration in μM normalized to stool weight from SPF, germ free (GF) or six-consort colonized germ free mice 2 weeks post-colonization (FIG. 11E) or for each member of the six-consort following 3 days anaerobic culture (FIG. 11F).
Feces collected from R mice were used as source material for high-throughput microbial isolation performed with the GALT Prospector technology. Bacterial identification was performed using MALDI-TOF Biotyper and Sanger sequencing. The cell free supernatants and <3 kDa small molecules of 183 Bacteroides isolates were screened for their ability to stimulate IFNγ production via a bioassay using primary CD8+ T cells and flow cytometric analysis. A consortium composed of six IFNγ-stimulating isolates or NR feces was transplanted into a gnotobiotic mouse model of lung cancer and treated with anti-PD-1, with or without anti-IFNγ monoclonal antibody depletion. Tumors were harvested at endpoint for flow cytometric analysis, and blood serum for IFNγ ELISA. […] Vacuum and high-performance liquid chromatography were used to identify fractions from the cell free supernatant of a single stimulating Bacteroides isolate which stimulate IFNγ production.
To summarize, small molecule characterization was performed using LC-MS/MS and computation pipelines for structural prediction. […]

[3] = combined with anti-PD-1, endpoint
[4] = intratumoral 0.043 mg/dose on each day of anti-PD-1 therapy, compared to anti-PD-1 or DMSO injection
[5] = intratumoral administration, endpoint

SMILES	frequency of intratumoral CD8+ T cells [1, 3]	tumor infiltrating cytotoxic IFNγ+CD8+ T cells [1, 3]	tumor volume at endpoint [1, 4]	tumor weight at endpoint [1, 4]	splenic IFNγ+CD8+ T cells [1, 5]	splenic overall CD8+ T cell frequency [1, 5]	proliferative effect on CD8+ T cells (percent of live CD8+ T cells) ([2]; higher concentrations)	IFNγ stimulation from primary splenic CD8+ T cells [2]	IFNγ stimulation from primary splenic CD8+ T cells ([2]; listed as Cis-Bac430)
CCCCCC/C=C\CCCCCCCCCC(=O)N[C@@H](Cc1ccccc1)C(=O)O [cis-Bac430]	increased frequency	trend toward increased	significantly smaller	significantly smaller	trend toward increased	decreased	mild proliferative effect	dose dependent bioactivity	robustly stimulate IFNγ
CCCCCC/C=C/CCCCCCCCCC(=O)N[C@@H](Cc1ccccc1)C(=O)O [trans-Bac430]	–	–	–	–	–	–	–	does not demonstrate bioactivity	–
